Results taken from US10918891B2, “Cosmetic treatment method for the skin” (SYNTIVIA, priority 2016, dated 2021).

Key:
NHEK cells = test: Survival (WST1) of NHEK keratinocytes exposed to cigarette extract, comparison with caffeic acid; type: cell-based, human; conditions: compound 10 ppm pretreatment 24 h and treatment 24 h, cigarette extract 1/50, cigarette extract alone 55% survival, FIG. 4
Experimental: This study aims to compare the protective or repairing effect of the compounds according to the invention (Ia) and (Ib) with respect to the damage induced on the skin by a cigarette extract. For comparison, caffeic acid (supplier: Acros) is also tested. This acid forms a basic unit of the compounds (Ia) and (Ib) according to the invention.
The NHEK cells are inoculated in a 96-well plate in a suitable medium (Promocell), at a rate of 9000 cells per well, and incubated 24 h at 37° C. and 5% carbon dioxide.
The compounds to be tested are prepared as follows: • (Ia): 10 mg of compound+909 μL of DMSO • (Ib): 7 mg of compound+636 μL of DMSO • caffeic acid: 10 mg of compound+909 μL of DMSO
Each stock solution above is diluted 1000 times, to 10 ppm in the culture medium, then the solutions obtained are filtered by means of a nylon filter (0.22 μm). The final solutions are concentrated to 10 ppm in 0.1% DMSO.
Solutions at 20 ppm in 0.2% DMSO are also prepared in a similar manner, for dilution in the cigarette extract.
An extract of 20 cigarettes is prepared as indicated in example 14 above. This extract is then diluted to 1/50 in the culture medium; or to 2/50 in the culture medium, then to 1/2 in the culture medium, to which the compound to be tested is added at 20 ppm.
The cells are pretreated for 24 h with the compound to be tested at 10 ppm in the culture medium.
The cells are then treated with the cigarette extract diluted to 1/50th with or without the compound tested at 10 ppm for 24 h.
3 h before the end of the test, 10 μl of WST1 cellular proliferation reactant (Roche) are added into each well. The absorbance at 450 nm is measured before and after the addition of WST1 reactant, by means of a Multiskan® reader. The treated cells are compared to the untreated cells and to the cells exposed to the cigarette extract.

IL-8 = IL-8 assay (ELISA) in culture supernatants of NHEK after induction with IL-1β; type: cell-based, human
Experimental: This study is carried out on normal human Keratinocytes (NHEK).
In this example, the anti-inflammatory properties of the compound (Ia) are evaluated by the assay of the IL-8, after the application of the cytokine IL-1β at 10 ng/ml onto NHEKs. IL-8 is a major inflammatory cytokine produced first of all during the inflammatory response of the keratinocytes. The quantification of the IL-8 in the culture supernatants allows an evaluation of the inflammatory state of the cells.
The IL-1β is added to the culture medium of the NHEKs at a rate of 10 ng/ml for 24 h. After incubation, the culture media are removed and replaced with culture media containing the compound (Ia) at 3 ppm. After 24 h of incubation, the supernatants are collected.
The reference anti-inflammatory element is dexamethasone (Sigma) used at 0.4 ppm. A control having undergone the same experimental conditions without the compound (Ia) (CTL), as well as a non-induced control (CTL without IL-1β), are also carried out.
The quantification of the IL-8 in 50 μl of the culture supernatants is measured by an ELISA test (human CXCL8/IL-8 Immunoassay, R&D Systems).
Each treatment is carried out in triplicate.

[1] = system: normal human Keratinocytes (NHEK); test: Reactive oxygen species (H2DCFDA probe) in NHEK after single UVA stress; type: cell-based
Experimental: The cells used for this example are normal human Keratinocytes (NHEK).
The antioxidant properties (neutralising the production of reactive oxygen species) of the compound (Ia) are evaluated after a single stress with UVAs on NHEKs, by a test based on the use of the fluorescent probe H2DCFDA on a triple culture.
H2DCFDA (2′-7′dichlorodihydrofluorescein diacetate, Fischer Scientific) is a probe that, after having diffused into the cell and after its acetate group has been split by intracellular esterases, can be oxidised by free radicals (H2O2) into DCF (2′-7′ dichlorofluorescein), a fluorescent compound. The production of the free radicals can thus be quantified by the level of fluorescence emitted by the oxidised probe. The more the cell produces free radicals, the higher the level of fluorescence detected.
After 24 hours of incubation with the compound (Ia) (3 ppm in an aqueous solution with 0.1% dimethylsulfoxide) or the reference elements, the cells are placed in the presence of the H2DCFDA probe at 3 ppm for 1 hour at 37° C., 5% CO2 in order to allow its intracellular diffusion.
The reference antioxidant elements are: Trolox ([…], Sigma), at 20 ppm and Quercetin (quercetin dihydrate, Sigma), at 18 ppm.
After one rinsing, the cells are subjected to a single stress with UVAs (in the absence of compound (Ia)) at a rate of 10 joules per square centimetre. The quantification of the fluorescence emitted (excitation: 485 nm; emission: 520 nm) is carried out immediately after the end of the UVA stress. […]
In order to provide a result representative of the cellular population of each condition after a single stress with UVAs, a cellular viability test (MTS) is carried out immediately after the quantification of the fluorescence emitted. The fluorescence values are thus normalised with respect to the cellular viabilities in order for it to be possible to compare the levels of fluorescence of the various conditions to each other.

Sirtuin-6 = test: Gene expression of Sirtuin-6 by real-time quantitative PCR in NHDF; type: cell-based, human
Experimental: The cells used for this example are normal human Fibroblasts (NHDF) The cells are inoculated in 96-well plates at a concentration of 10000 cells per well.
The contact with the compound tested is carried out for 24 h. After the 24 h contact, the supernatant is eliminated and the cells are collected in a lysis solution in order to extract the mRNA. The mRNA is reverse transcribed into DNA then quantified by real-time quantitative PCR.

Cc1ncc(CO)c(CNC(=O)/C=C/c2ccc(O)c(O)c2)c1O [Compound (Ia)]
% survival of the cells (NHEK cells): 108% | inhibition at 3 ppm (IL-8; Homo sapiens, compound 3 ppm, versus control CTL, read-out: inhibition of the production of IL8 in keratinocytes subjected to inflammation in the presence of IL-1β): 30% | Quantification of the IL8 (optical density) (IL-8; IL-1β 10 ng/ml 24 h, then substance 24 h, compound (Ia) 3 ppm, dexamethasone 0.4 ppm, CTL 0.23, CTL without IL-1β 0.06): 0.16 optical density | Assay of the fluorescence with H2DCFDA after irradiation of NHEKs with UVAs ([1]; 24 h incubation, (Ia) 3 ppm, Trolox 20 ppm, Quercetin 18 ppm, UVA 10 J/cm2, normalised to viability (MTS), CTL UVA 289687.6, CTL without stress 16441.9): 198588.8 | reduction of the generation of intracellular H2O2 after UVA stress ([1]; NHEK, compound 3 ppm, single UVA stress, FIG. 1): 40% | Gene expression of the sirtuin-6 compared to the basal level based on 100% (Sirtuin-6; 24 h contact): 166% | stimulation of the expression of the gene of the Sirtuin-6 with respect to the untreated control (Sirtuin-6; see Example 13): 66%
